Laboratory results published in patent US9034303B2, “Neuroprotective and neuro-restorative iron chelators and monoamine oxidase inhibitors and uses thereof” (priority 2010, dated 2015).
“Also recorded” adds a separate entry of the source.

Experiments:
[1] = Stability in aqueous solution (PBS or saline) followed by HPLC; assay type: physicochemical; conditions: for Amount of compound remaining (%): 25° C., 0.5 mM
Description: (§1) Using high pressure liquid chromatography (HPLC), the stability of each of the tested compounds was determined by following its respective chemical character over time in either phosphate buffered saline (PBS) and/or 0.85% saline solution (sodium chloride). In each case, 0.5 mM of the tested compound in PBS or saline solution was incubated at 25° C. or at 37° C. for 20 hours or, in some cases, up to two days (48 hours).

[2] = Follow-up stability experiment at 37° C. in PBS; assay type: physicochemical
Description: as §1
In addition, in a follow-up experiment the instability of M30, and the stability of compounds 3, 7 and 8 was also confirmed at 37° C. in PBS, Table 2, below.

rat brain MAO-B = rat brain MAO-B (Rattus norvegicus (Rat), UniProt P19643); experiment: In vitro inhibition of rat brain MAO-B (14C-PEA substrate); assay type: biochemical
Chain of rat brain MAO-B (P19643 whole entry): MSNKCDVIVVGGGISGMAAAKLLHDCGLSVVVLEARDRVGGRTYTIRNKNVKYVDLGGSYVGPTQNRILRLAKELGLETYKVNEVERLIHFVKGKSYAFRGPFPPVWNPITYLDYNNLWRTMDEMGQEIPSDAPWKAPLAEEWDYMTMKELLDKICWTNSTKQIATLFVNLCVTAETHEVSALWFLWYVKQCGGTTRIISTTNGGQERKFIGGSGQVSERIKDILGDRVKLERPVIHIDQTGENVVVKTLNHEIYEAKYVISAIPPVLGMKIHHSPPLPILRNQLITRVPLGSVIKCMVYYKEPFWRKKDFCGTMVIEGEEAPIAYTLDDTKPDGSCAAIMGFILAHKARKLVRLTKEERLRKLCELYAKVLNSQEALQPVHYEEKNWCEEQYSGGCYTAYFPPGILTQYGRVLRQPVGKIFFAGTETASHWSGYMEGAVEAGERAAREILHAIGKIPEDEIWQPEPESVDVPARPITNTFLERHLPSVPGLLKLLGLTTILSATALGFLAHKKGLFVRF
Description: Rats are decapitated and the brains quickly taken into a weighted ice-cold sucrose buffer (0.32 M) and their weights determined. All subsequent procedures are performed at 0° C. The brains are homogenized in 0.32 M sucrose (one part tissue to 20 parts sucrose) in a Teflon glass homogenizer followed by the addition of sucrose buffer to a final concentration of 10% homogenate. The homogenates are centrifuged at 600 g for 15 min. The supernatant fractions are taken out and centrifuged at 4500 g for 30 min, the pellet diluted in 0.32 M sucrose buffer and kept frozen for later assaying of MAO.
MAO-A and MAO-B activities are determined in rat brain homogenate in vitro following incubation with varying concentrations of the test compounds.
The in vitro inhibitory activity of the compounds is tested against rat brain MAO-B. The test compounds are added to buffer containing 10^−7 M clorgylin and are incubated with the tissue homogenate for 30 or 60 min at 37° C. before addition of ^14C-PEA.
The test compound was added to a suitable dilution of the enzyme preparation (70 μg protein for MAO-B and 150 μg MAO-A assay) in 0.1 M phosphate buffer (pH 7.4). The mixture was incubated together with […], a specific inhibitor of MAO-B (for determination of MAO-A) or 0.05 M clorgylin, a specific inhibitor of MAO-A (for determination of MAO-B). Incubation was carried for 0.5 or 1 h at 37° C. before addition of ^14C-5-hydroxytryptamine binoxalate (5-HT) (100 or 400 μM) for determination of MAO-A, or ^14C-phenylethylamine (^14C-PEA) 100 or 400 μM for determination of MAO-B, and incubation continued for 30 min or 20 min, respectively. The reaction was stopped with 2 M ice-cold citric acid, and the metabolites were extracted and determined by liquid-scintillation counting in cpm units.
The reaction was stopped with 2 M ice-cold citric acid, and the metabolites were extracted with ethyl acetate and levels of radioactivity were determined by liquid-scintillation counting in CPM units. All assays were performed at least in duplicate and outcome was expressed as a mean±SEM. Data were analyzed by a Student's t test. Variations were considered statistically significant at a p value of 0.05.
MAO-A and MAO-B activity was measured using radioactive substrates. The substrate for MAO-A was 5 HT and for MAO-B was PEA. When measuring the activity of MAO-A, the MAO-B activity was inhibited with deprenyl and when measuring the activity of MAO-B the activity of MAO-A was inhibited with clorgylin. Blank samples were produced using TCP to inhibit both of the enzymes. The metabolites were extracted to toluene and read in a β-counter. The results are expressed in relative activity and normalized to the amount of protein in the tissue.

MAO-B = MAO-B (Mus musculus (Mouse), UniProt Q8BW75); experiment: In vivo MAO-B inhibition in mice after a single i.p. injection; conditions: one hour later
Chain of MAO-B (Q8BW75 whole entry): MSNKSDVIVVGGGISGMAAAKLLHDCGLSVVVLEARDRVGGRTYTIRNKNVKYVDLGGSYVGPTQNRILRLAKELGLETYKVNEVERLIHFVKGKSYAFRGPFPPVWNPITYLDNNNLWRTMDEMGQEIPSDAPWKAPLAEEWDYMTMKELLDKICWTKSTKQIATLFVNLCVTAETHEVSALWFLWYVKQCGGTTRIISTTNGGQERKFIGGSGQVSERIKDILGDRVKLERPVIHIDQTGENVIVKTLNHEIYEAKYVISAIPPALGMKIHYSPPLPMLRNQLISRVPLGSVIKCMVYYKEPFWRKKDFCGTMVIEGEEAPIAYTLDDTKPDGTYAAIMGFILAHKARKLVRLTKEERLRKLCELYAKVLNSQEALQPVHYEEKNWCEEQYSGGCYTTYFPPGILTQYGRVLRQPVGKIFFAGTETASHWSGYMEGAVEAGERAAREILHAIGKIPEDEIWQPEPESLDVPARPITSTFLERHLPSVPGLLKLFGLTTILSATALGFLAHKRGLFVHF
Description: For the MAO-inhibition study, mice (6 mice in each group) were injected intraperitoneally (i.p.) with compound 3 at the dosage of 5 or 10 mg/kg; or with M30 at the dosage of 10 mg/kg. Control mice received saline (0.1 mL) i.p. One hour later the mice were killed by cervical dislocation, while striatum and small intestine were removed rapidly and frozen in liquid nitrogen for further analysis. FIGS. 3 and 4 show MAO-A/MAO-B in vivo activity of compound 3 compared to the activity of M30. FIG. 3 presents an MAO inhibition in striatum, and FIG. 4 presents an MAO inhibition in intestine. The percent inhibition was computed based on comparison to control animals.

in vitro = conditions: human
Description: (§2) The cytotoxicity of compound 3 was assessed in vitro using two standard cell lines, HepG2, derived from a human hepatocellular carcinoma, and SH-SY5Y, derived from a human neuroblastoma, both in the presence and absence of excess iron.
(§3) HepG2 cells were maintained at ˜5% CO2, 37° C., and 95% relative humidity in minimal essential media (MEM) supplemented with 10% fetal bovine serum plus 0.1 mM non-essential amino acids, 2 mM L-glutamine, and penicillin/streptomycin. SH-SY5Y cells were maintained at ˜5% CO2, 37° C., and 95% relative humidity in a mixture of minimal essential media (MEM) and F12 K media (1:1, v:v) supplemented with 10% fetal bovine serum plus 0.1 mM non-essential amino acids, 2 mM L-glutamine, and penicillin/streptomycin. The cells were subcultured every two to three days and plated in tissue culture treated opaque white 96-well plates at a density of 1×10^4 cells/well and incubated at ˜5% CO2, 37° C., and 95% relative humidity overnight prior to initiation of the assay.
(§4) A series of DMSO stocks of the test article at 100× of the final concentration were diluted 1:100 with fresh culture media (final DMSO concentration was 1%). The media from the plated cells was removed and replaced with 100 μL of media containing test article or tamoxifen with final concentrations ranging between 0.01 to 1000 μM in triplicate. Wells containing no cells were used as background controls. Tamoxifen was used as a known positive control and DMSO alone was used as a vehicle control. The cells were incubated for four hours at ˜5% CO2, 37° C., and 95% relative humidity.
(§5) Cell viability was determined using a commercially available kit to determine ATP levels by luminescence. Briefly, the buffer and lyophilized substrate from the kit were equilibrated to room temperature. The buffer was used to reconstitute the substrate just prior to addition to the wells of the cell plate (100 μL per well). The plate was placed into the Tecan Infinite M200 plate reader, agitated for 10 minutes followed by a 10 minute wait period, then read using an integration time of 0.5 seconds with no attenuation.
(§6) The mean luminescence from the test article treated cells was compared to that treated by DMSO only.

SHSY-5Y cells = experiment: in vitro; conditions: read-out: LC50 (μM) SHSY-5Y; four hours incubation
Description: as §2, §3, §4, §5, §6

SMILES: C#CCN(C)CCc1ccc(O)c2ncccc12 [Compound 3, 5-[2-(methyl-2-propyn-1-ylamino)ethyl]-8-quinolinol]
- Stability in aqueous solution (in words) ([1]; PBS and/or saline solution): highly stable chemically; also recorded: ^+Compound 3 was stable for up to 48 hours at 25 °C in both saline and PBS
- Amount of compound remaining (%) ([1]; PBS, 0.5 hours): 100%
- Amount of compound remaining (%) ([1]; PBS, 2 hours): 100%
- Amount of compound remaining (%) ([1]; PBS, 20 hours): 100%
- Amount of compound remaining (%) ([1]; PBS, 48 hours): 100%
- Amount of compound remaining (%) ([1]; saline, 0.5 hours): 100%
- Amount of compound remaining (%) ([1]; saline, 2 hours): 100%
- Amount of compound remaining (%) ([1]; saline, 20 hours): 100%
- Amount of compound remaining (%) ([1]; saline, 48 hours): 100%
- Amount of compound remaining (%) ([2]; 3 hours): ≧100%
- Amount of compound remaining (%) ([2]; 8 hours): 95.7%
- Amount of compound remaining (%) ([2]; 24 hours): ≧100%
- Amount of compound remaining (%) ([2]; 48 hours): 87.2%
- IC50 (rat brain MAO-B): 0.01 to 0.03 µM
- Inhibition of rat brain MAO-B in vitro (in words) (rat brain MAO-B; rat brain): potent inhibitors
- MAO-B inhibition in striatum (MAO-B; 5 or 10 mg/kg): inhibited in a dose responsive fashion
- MAO-B inhibition in intestine (MAO-B; small intestine): Reduced inhibition in the intestinal tissue versus striatal tissue
- CC50 at 4 h (in vitro): > 1000 µM
- CC50 at 4 h (in vitro; LC50 (μM) SHSY-5Y, four hours incubation): 865 µM
- CC50 (SHSY-5Y cells): 885 µM
